# Measured values taken from US6962909B2, “Treatment of neovascularization disorders with squalimine” (Genaera Corporation, priority 1995, dated 2005).
# Experiments:
# [1] = tested on: vitelline capillaries of 3- to 5-day chick embryo; test: Chick embryo vitelline capillary regression assay; type: in vivo; parameters: key to Vascular reactivity (capillary regression): + = Vascular reactivity; 0 = No vascular reactivity; +/− = Equivocal reactivity; settings: for Vascular reactivity (capillary regression): 60 minutes
# Summary of the method: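 Compounds were applied onto the 3- to 5-day embryo in 0.1 ml 15% Ficol 400 in PBS. Vascular regression was assessed visually after 60 min, scoring capillary constriction and pinching-off into enclosed blood-island-like sacs.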
# [2] = tested on: B16 melanoma; test: Growth of B16 melanoma in C57B mice; type: in vivo
# Protocol: The growth of B16 melanoma in C57B mice is dependent upon neovascularization.
# Using the growth of B16 melanoma cells in C57B mice, a recognized model for the evaluation of inhibitors of angiogenesis on the growth of cancers, the effects of subcutaneous, intraperitoneal and oral administration of squalamine were evaluated.
# Animals were implanted with B16 melanoma followed by treatment with compound 1436 or 1256 administered in a combined schedule or separately. […] Thus, a combination of these two compounds achieves a therapeutic benefit in tumors dependent on neovascularization that may prevent metastatic spread.
# [3] = tested on: PHA-stimulated human lymphocytes; test: Inhibition of mitogen-stimulated growth of human T-cells; type: cell-based; settings: 72 hours
# Protocol: Human heparinized blood, freshly collected, was introduced into tissue culture flasks containing 10 μg/ml phytohaemagglutinin (PHA) in RPMI medium with 10% FCS. Various purified steroids were introduced subsequently at concentrations of 1, 5, and 10 μg/ml. Cultures were incubated for 72 hours, after which time colcemid was added to 1 μg/ml. Cultures were maintained for an additional 2 hours, and cells collected. Mitotic figures were estimated using standard cytochemical techniques, following Giemsa staining.
# [4] = tested on: Human coronary artery smooth muscle cells; test: In vitro growth of coronary artery smooth muscle; type: cell-based
# Description: As set forth in Table 7 below, all malignant tumors evaluated in tissue culture, endothelial cells and vascular smooth muscle cells were sensitive to inhibition. Thus, compound 1436 has application in the control of growth factor dependent proliferation of many types of tissue.
# Aminosterols of the invention may also have utility in inhibiting the growth factor mediated proliferation of smooth muscle within the artery. Following coronary angioplasty, reocclusion commonly occurs, secondary to reparative proliferation of the vascular smooth muscle within the wall of the surgically manipulated blood vessel. This process generally takes place over the course of 7-10 days. To evaluate whether an agent could prevent the growth factor mediated proliferation of smooth muscle within the artery, compound 1436 was evaluated in vitro for its effect on the proliferation of human coronary artery smooth muscle. Results for compound 1436 are shown in FIG. 13, and those for squalamine are shown in FIG. 14, with FIG. 15 being a composite logarithmic plot.
# [5] = Growth and weight gain in normal growing mice; type: in vivo; settings: C57B mice
# Protocol: Animals were dosed QTD (i.p.) starting on Day 1. […] Animals receiving 5 mg/kg QTD experienced about a 50% reduction in growth, compared to untreated controls, while animals receiving 1 mg/kg QTD were affected by about 10%. […] They appeared very much like hypophysectamized animals might appear.
# [6] = tested on: Stage 59-60 Xenopus tadpoles; test: Xenopus tadpole assay; type: in vivo, Xenopus laevis; settings: 10 μg/ml in water; for Pharmacological response observed in tadpole: about 1 hour
# Summary of the method: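 Stage 59-60 Xenopus laevis tadpoles placed in compound dissolved in distilled water at 10 μg/ml, allowing oral uptake and systemic exposure. After 1 hour, capillary blood-flow occlusion in the tail was scored by inverted microscopy (~100×) plus gross observation.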
# [7] = Fasting blood glucose in mice; type: in vivo; settings: for Fasting Blood Glucose Mean + SEM: male CD-1 mice, 2 × 10 mg/kg i.v. (total 20 mg/kg), overnight fast, blood 30 min. after 2d dose, 1437 and 1256 in H2O, 1436 in D5W
# Protocol: To study the effect of steroid administrator or the NHE responsible for secretion of insulin, several of the aminosterols from shark liver were administered to fasting mice. Male CD-1 mice were assigned to one of four treatment groups. Whole blood glucose was tested using glucometer (Lifescan Glucometer II and One Touch test strips). Statistical analysis was via one-way analysis of variance (ANOVA) followed by subsequent Bonferonni's t-test.
SMILES,Vascular reactivity (capillary regression) ([1]; 0.001 μg applied),Vascular reactivity (capillary regression) ([1]; 0.01 μg applied),Vascular reactivity (capillary regression) ([1]; 0.1 μg applied),Vascular reactivity (capillary regression) ([1]; 1 μg applied),Vascular reactivity (capillary regression) ([1]; 10 μg applied),Inhibition of PHA-stimulated human lymphocytes ([3]; 1 μg/ml),Inhibition of PHA-stimulated human lymphocytes ([3]; 5 μg/ml),Inhibition of PHA-stimulated human lymphocytes ([3]; 10 μg/ml),Pharmacological category in tadpole assay (similarity to a reference steroid) [6],Time to death of tadpole [6],Pharmacological response observed in tadpole [6],Fasting Blood Glucose Mean + SEM [7],other results
CC(CC[C@@H](OS(=O)(=O)O)C(C)C)[C@H]1CCC2C3C(CC[C@@]21C)[C@@]1(C)CC[C@H](NCCCNCCCCNCCCN)C[C@@H]1C[C@H]3O (stereo partly drawn) [Compound 1436],+/−,+,+,+,+,20 % control,50 % control,80 % control,common vascular occlusive effect,about 2 hours,"Gradual reduction in overall activity. Heart beat remained strong, suggesting nervous system depression. Melanocytes over head and tail began to swell, first exhibiting visibly distinct nuclei, followed by rupture into fragments",105 ± 8.0 mg/dL,"Effect on chick embryo capillary bed ([1]; in vivo): causes vitelline capillary regression with about the same potency as squalamine; Impact on tumor volume ([2]; compound 1436 10 mg/kg/every 3 days alone): no significant impact on tumor volume; Concentration effective in suppressing growth [4]: 10 to 12 µg/mL; Concentration maintaining cells quiescent without loss of viability [4]: about 11 μg/ml; Reduction in growth compared to untreated controls ([5]; 1 mg/kg QTD i.p.): about 10%; Reduction in growth compared to untreated controls ([5]; 5 mg/kg QTD i.p.): ~50%; Suppression of growth of mice ([5]; 10 mg/kg QTD i.p., after 6 doses, about 1 month): growth was almost completely inhibited; Pharmacological response observed in tadpole ([6]; listed as compound 1436): dramatic disruption of melanocytes over its head, trunk, and tail, along with depression of its nervous system; Effect on blood glucose ([7]; intravenous, 1436 in D5W (5% glucose), 1437 in water): caused hyperglycemia in mice"
CC(CC[C@@H](OS(=O)(=O)O)C(C)C)[C@H]1CCC2C3C(CC[C@@]21C)[C@@]1(C)CC[C@H](NCCCNCCCCN)C[C@@H]1C[C@H]3O (stereo partly drawn) [squalamine],0,+,+,+,+,3 % control,8 % control,10 % control,common vascular occlusive effect,≤ 2 h,blood flow through the capillaries of the tail shut down,65 ± 7.3 mg/dL,Body weight and hematologic parameters ([2]; during squalamine treatment): no significant depression; Impact on tumor volume ([2]; squalamine 5 mg/kg/day alone): no significant impact on tumor volume; Suppression of tumor volume ([2]; squalamine intraperitoneally): dose-dependent suppression of tumor volume; Suppression of tumor volume ([2]; squalamine orally): dose-dependent suppression of tumor volume; Suppression of tumor volume ([2]; squalamine subcutaneously): dose-dependent suppression of tumor volume; Pharmacological response observed in tadpole ([6]; listed as Compound 1256): Vascular occlusion in fine capillaries of tail
